For the assay, the target named is Programmed cell death 1 ligand/protein 1 (Homo sapiens, UniProt Q15116+Q9NZQ7). In words: PD1-PDL1 HTRF Binding Activity Assay. Here is the method: 1) Pre-diluted compound solution, 4 μL of Tag1-PD-L1 and 4 μL of Tag2-PD1 were added to each well of a 384-well plate:2) After the mixture was incubated at room temperature for 15 min, 5 μL of anti-Tag1-Eu3+ antibody and 5 μL of anti-Tag2-XL665 antibody were then added;3) After incubated for 2 hrs at room temperature or overnight at 4° C., plates were read on Envision of Pelkin Elmer; and readings at 665 nm and 620 nm were recorded, and the ratio of the two readings was taken as a reading for each well;4) The reading of each well after compound treatment was compared with the reading of DMSO treated wells to obtain the percent inhibition of the compound;5) IC50 values of compounds and positive compounds of the examples of the present invention were determined by non-linear regression analysis of percent inhibition at different compound concentrations.
In general terms: In TR-FRET formats the signal depends on donor and acceptor labels being close together.

Structures are written as SMILES.

Sequence of Programmed cell death 1 ligand/protein 1 (Q9NZQ7 whole entry): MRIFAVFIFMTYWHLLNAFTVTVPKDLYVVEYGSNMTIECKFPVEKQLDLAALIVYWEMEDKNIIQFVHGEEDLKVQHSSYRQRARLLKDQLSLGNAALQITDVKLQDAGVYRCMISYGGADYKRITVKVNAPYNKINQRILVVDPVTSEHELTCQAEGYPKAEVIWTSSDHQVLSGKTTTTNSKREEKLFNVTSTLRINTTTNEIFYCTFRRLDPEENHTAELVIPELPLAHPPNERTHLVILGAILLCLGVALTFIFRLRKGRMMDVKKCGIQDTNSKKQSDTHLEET
Sequence of Programmed cell death 1 ligand/protein 1 (Q15116 whole entry): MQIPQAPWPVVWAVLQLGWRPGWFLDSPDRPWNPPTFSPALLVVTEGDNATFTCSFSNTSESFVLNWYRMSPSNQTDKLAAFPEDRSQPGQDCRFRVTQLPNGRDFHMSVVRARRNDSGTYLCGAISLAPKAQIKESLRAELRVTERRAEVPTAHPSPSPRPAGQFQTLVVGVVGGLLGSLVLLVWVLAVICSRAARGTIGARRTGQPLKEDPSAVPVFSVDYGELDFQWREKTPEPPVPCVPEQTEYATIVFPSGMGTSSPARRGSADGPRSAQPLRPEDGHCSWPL

On to `CC(C)N1CCc2cc(C(=O)Nc3cccc(-c4cccc(NC(=O)c5cc(C6CC6)c(CN6CCCC[C@H]6C(=O)O)cn5)c4Cl)c3Cl)ncc2C1` [US12552811, Example 32], for which the concentration for half-maximal inhibition (IC50) (commonly the point on the concentration scale where inhibition reaches its midpoint) turned out to be 0.661 nM.

Source of the values: BindingDB's records for patent US12552811 (Abbisko Therapeutics Co., 2026).
